This data set can be described thus: Oral bioavailability of gallium complexes in dogs (plasma gallium by ICP-MS). The following applies: for blood levels of gallium reached (peak blood concentration of gallium) / maximum blood concentration of gallium achieved: 2.5 mg/kg; for blood levels of gallium reached by oral controls: oral positive control (all three dogs) and oral negative control (highest value, one animal), Beagle dogs. The method, then: Pharmacokinetics, oral bioavailability and bioequivalency of gallium-ligand complexes according to the invention were determined in dogs following a single oral gavage administration of the compounds as a suspension/solution in water in fasted male Beagle dogs at 2.5 mg/kg dog body weight or following administration of a single total dose of 30 mg in a capsule formulation (for histidine and carnosine only). The following complexes were selected for testing: gallium picolinate, gallium kojate, gallium (+)-mandalate, gallium (−)-mandalate, gallium tryptophanate, gallium acetyl piperidinate, gallium prolinate both neutral and ionic; and the capsules prepared from histidine and carnosine. Each compound was studied in groups of three fasted animals. Nine serial blood samples were collected from each animal by venipuncture of a jugular vein at the following time points post-dose: 0 (predose), 0.25, 0.5, 0.75, 1, 2, 4, 8, and 16 hours post-dose. Blood samples were collected into chilled tubes containing heparin as the anticoagulant.
Oral bioavailability of the test gallium complex was evaluated in each of the three animals in each test group.

The mark [1] stands for this setting: single oral gavage, suspension/solution in water, fasted male Beagle dogs.

Structures are written as SMILES.

As to `OCC1=CC2=[O+][Ga-3]34([O]C2=CO1)([O]C1=COC(CO)=CC1=[O+]3)[O]C1=COC(CO)=CC1=[O+]4` [gallium kojate], for the setting “male, Beagle, dog, in vivo, po”, the “blood levels of gallium reached (peak blood concentration of gallium)” value is reported as “at least 1,000 ng/ml”. Consider `Cc1occc(=O)c1[O-].Cc1occc(=O)c1[O-].Cc1occc(=O)c1[O-].[Ga+3]` [gallium maltolate, reference compound], for which the “blood levels of gallium reached by oral controls” value is ≥ 1,000 ng/ml. As to `O=C1[O][Ga-3]23([O]C(=O)[C@H](c4ccccc4)[OH+]2)([O]C(=O)[C@H](c2ccccc2)[OH+]3)[OH+]C1c1ccccc1` (stereo partly drawn) [gallium (+)-mandalate], the “blood levels of gallium reached (peak blood concentration of gallium)” value (male, Beagle, dog, in vivo, po) is reported as “at least 1,000 ng/ml”.

`N[C@@H](Cc1c[nH]c2ccccc12)C(=O)[O-].N[C@@H](Cc1c[nH]c2ccccc12)C(=O)[O-].N[C@@H](Cc1c[nH]c2ccccc12)C(=O)[O-].[Ga+3]` [gallium tryptophanate complex]: the “maximum blood concentration of gallium achieved” value (shortened to “maximum blood concentration”) under setting [1] is “about 500 ng/ml”.

In the case of `O=C1[O][Ga-3]23([O]C(=O)[C@@H](c4ccccc4)[OH+]2)([O]C(=O)[C@@H](c2ccccc2)[OH+]3)[OH+]C1c1ccccc1` (stereo partly drawn) [gallium (−)-mandalate], the “blood levels of gallium reached (peak blood concentration of gallium)” value (male, Beagle, dog, in vivo, po) was “at least 1,000 ng/ml”. In the case of `O=C([O-])C1CCCN1.O=C([O-])C1CCCN1.O=C([O-])C1CCCN1.[Ga+3]` (stereo not drawn) [gallium prolinate neutral complex], the “maximum blood concentration” value under setting [1] is “about 300 ng/ml”.

On to `O=C1[O][Ga-3]23([O]C(=O)c4cccc[n+]42)([O]C(=O)c2cccc[n+]23)[n+]2ccccc21` [gallium picolinate], for which the “blood levels of gallium reached (peak blood concentration of gallium)” value (male, Beagle, dog, in vivo, po) is given as “at least 1,000 ng/ml”. Consider `CC1=[O+][Ga-3]23([O]C(=O)C4CCCCN14)([O]C(=O)C1CCCCN1C(C)=[O+]2)[O]C(=O)C1CCCCN1C(C)=[O+]3` (stereo not drawn) [gallium acetyl piperidinate complex], for which, for the setting “male, Beagle, dog, in vivo, po”, the “maximum blood concentration” value is “about 200 ng/ml”. For the molecule `O=[N+]([O-])[O-].O=[N+]([O-])[O-].O=[N+]([O-])[O-].[Ga+3]` [gallium nitrate, reference compound], the “blood levels of gallium reached by oral controls” value was at most 700 ng/mL.

The record behind these values is patent US20120245135A1, “Gallium Complexes, Pharmaceutical Compositions And Methods Of Use” (Genta Incorporated, priority 2011, published 2012).
